In paper PMC4764201, “High Throughput Screen for Escherichia coli Twin Arginine Translocation (Tat) Inhibitors” (PLoS ONE, 2016):
Entries after “also recorded” stand apart in the source; their conditions may differ.

Tests used:
[1] = molecular target: E. coli Tat machinery (IMVs containing overproduced TatABC) (Escherichia coli, UniProt P69423+P69425+P69428); experiment: In vitro Tat transport assay of pre-SufI into IMVs, NADH as energy source; format: biochemical; details: for outcome of NADH-dependent in vitro Tat transport screen (survival = visible inhibition of Tat transport): hit compound 20 μM, NADH 4 mM, 37°C 30 min; for IC50: efficiency of NADH-dependent in vitro Tat transport of pre-SufI, IMVs A280 = 5; for effect on in vitro E. coli Tat transport: 90 nM pre-SufI, NADH, with and without 2.5 mM DTT
Sequence of E. coli Tat machinery (IMVs containing overproduced TatABC) (P69423 2-258): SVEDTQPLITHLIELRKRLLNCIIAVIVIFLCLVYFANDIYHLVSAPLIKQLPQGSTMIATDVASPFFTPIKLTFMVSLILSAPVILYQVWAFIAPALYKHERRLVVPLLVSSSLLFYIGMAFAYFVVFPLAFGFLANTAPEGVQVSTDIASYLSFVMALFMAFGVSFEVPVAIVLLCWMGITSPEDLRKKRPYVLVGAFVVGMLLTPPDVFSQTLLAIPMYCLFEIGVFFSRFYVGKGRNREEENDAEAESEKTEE
Sequence of E. coli Tat machinery (IMVs containing overproduced TatABC) (P69425 whole entry): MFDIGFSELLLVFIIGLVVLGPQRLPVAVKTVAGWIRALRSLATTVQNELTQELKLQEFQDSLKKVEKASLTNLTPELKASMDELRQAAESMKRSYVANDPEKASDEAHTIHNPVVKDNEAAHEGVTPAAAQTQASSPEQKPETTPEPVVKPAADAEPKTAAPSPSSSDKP
Sequence of E. coli Tat machinery (IMVs containing overproduced TatABC) (P69428 whole entry): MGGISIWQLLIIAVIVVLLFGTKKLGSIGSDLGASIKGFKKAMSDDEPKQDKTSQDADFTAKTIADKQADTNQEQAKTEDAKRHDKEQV
Protocol: To directly test for inhibition of Tat transport, a gel-based in vitro Tat transport assay was performed using pre-SufI, an authentic Tat precursor protein [7]. In short, this assay consists of incubating a Tat substrate and a Δψ-generating energy source with inverted membrane vesicles (IMVs) containing overproduced TatABC, digesting remaining external protein with a protease, and then analyzing via SDS-PAGE. This assay was run twice using NADH and ATP (if warranted) as energy sources to generate the necessary Δψ. NADH generates a Δψ using respiratory proteins (i.e., the NADH dehydrogenase and cytochrome bo3 ubiquinol oxidase complexes) and ATP generates a Δψ by reversal of ATP synthase. A true Tat inhibitor would survive both assays. In contrast, a respiration inhibitor is expected to reduce Tat transport when only one of the two energy sources is used (except for an ionophore).
Fig 8 Effect of Hits from the Local HTS on In Vitro Tat Transport. (A) Tat transport assays of pre-SufI using NADH to generate a Δψ. Inverted membrane vesicles (IMVs; A280 = 5.0), the fluorescent substrate pre-SufI-IAC^Atto565 (90 nM), and NADH (4 mM) were incubated at 37°C for 30 min with DMSO (control) or with hit compound (20 μM). Samples were treated with the protease proteinase K, run on SDS-PAGE, and analyzed by in-gel fluorescence imaging. Assays were run in duplicate. Band intensity corresponds to the amount of protein transported into the IMV lumen. The following 7 compounds survived this screen: 1^JS, 51^JS, 55^JS, 111^JS, 181^JS, 202^JS, and 140^JS (boxed in red). (B) Tat transport assays of pre-SufI using ATP to generate a Δψ. All 7 compounds surviving the screen in (A) were tested using a Tat transport assay performed identically to those in (A) except that ATP (1 mM) was used in place of NADH. Compound 55^JS was eliminated by this assay—the other 6 compounds survived (boxed in red). (C) Chemical structure of compound 55^JS, N-(4,7-Dioxo-4,7-dihydro-2,1,3-benzoxadiazol-5-yl)acetamide.
(§1) Isolation of inverted membrane vesicles (IMVs), Western blot analyses and purification of pre-SufI-IAC were performed as described previously. Western blots were performed using rabbit anti-mCherry antibodies (1:10,000 dilution) in the presence of 0.1% Triton X-100 and 0.1% Tween 20. The pre-SufI-IAC protein was labeled with Atto565 maleimide, and the resultant fluorescent protein, pre-SufI-IAC^Atto565, was used as a substrate for the in vitro Tat transport assays (A280 = 5.0), as described previously. The presence of a Δψ was determined by measuring oxonol VI fluorescence in presence of Tat^+ IMVs (A280 = 0.5), as described previously, except that the translocation buffer lacked BSA. Steady-state fluorescence spectra and fluorescence intensities of whole cells producing mCherry proteins were determined with an SLM-8100 spectrofluorometer.
(§2) Supplementary file pone.0149659.s003.tiff: S3 Fig IC50's for Hit Compound 181^JS. (A) The total cellular mCherry fluorescence (live cell assay; n = 1), (B) the in vitro NADH-dependent Tat transport efficiency of pre-SufI (n = 1), and (C) the maximum transmembrane electrical potential gradient (n = 1) were measured for a range of concentrations of compound 181^JS (S2E Fig). (D) SDS-PAGE gel showing in-gel fluorescence data used in (B). For (A), cells expressing spTorA-mCherry-SsrA were grown under Tat^++ conditions in a 384-well plate in the presence of 0, 0.08, 0.15, 0.3, 0.63, 1.25, 2.5, 5, 10, 20, or 40 μM compound 181^JS, as described for the HTS assay (see Methods). For (B) and (C), IMVs were incubated with the same concentrations of compound 181^JS prior to initiation of Tat transport and Δψ generation by the addition of NADH, as described previously. The red curves are best-fits using y = d + (100-d)/(1+(x/IC50)^b), where b is a slope factor and d is the high concentration asymptote. (TIFF) Click here for additional data file.

[2] = system: electrical field gradient (Δψ) across IMVs; experiment: Δψ assay (oxonol VI fluorescence with IMVs); format: biochemical, Escherichia coli; details: for IC50: electrical field gradient, IMVs A280 = 0.5, NADH
Protocol: Hit compounds surviving the in vitro Tat transport assay screens could be general Δψ inhibitors (ionophores), as both NADH and ATP generate the Δψ necessary for Tat transport. Since our current assay to measure Δψ requires ~20 times more test compound than the Tat transport assays, we reserved this assay for last. The presence of a Δψ was determined by measuring oxonol VI fluorescence. For all 8 hit compounds that survived initial secondary screening, we tested their dose dependent effect on the Δψ, on NADH-dependent in vitro Tat transport efficiency, and on the fluorescence signal recovered from our primary HTS assay (live cell assay). […] Out of 22 independent assays by three different people, compound 18^NIH inhibited Tat transport 12 times. The conflicting results seem more likely to arise from differences in IMV preparations rather than decomposition of or impurities in the samples of compound 18^NIH.
as §1, §2

With `O=[N+]([O-])c1ccc(O)c(-c2cccs2)c1` [Compound 202, 4-nitro-2-thiophen-2-ylphenol] the “outcome of NADH-dependent in vitro Tat transport screen (survival = visible inhibition of Tat transport)” value [1] was “survived” and the IC50 [2] was 3000 nM.

`O=[N+]([O-])c1cc([N+](=O)[O-])c2ccccc2c1Cl` [Compound 51, 1-chloro-2,4-dinitronaphthalene] was tested, and the “outcome of NADH-dependent in vitro Tat transport screen (survival = visible inhibition of Tat transport)” value [1] was “survived” and the IC50 [2] was 8000 nM.

In the case of `N#CC1c2ccccc2-n2nncc2CN1Cc1cc(Cl)cc(Cl)c1` (stereo not shown) [21^NIH, 5-[(3,5-dichlorophenyl)methyl]-4,6-dihydrotriazolo[1,5-a][1, 4]benzodiazepine-6-carbonitrile], the IC50 [1] is reported as 50000 nM and the IC50 [2] is reported as 4000 nM.

`Oc1cc(Cl)ccc1Oc1ccc(Cl)cc1Cl` [Compound 18^NIH, 5-Chloro-2-(2,4-dichlorophenoxy)phenol] was tested, and the “effect on the Δψ across IMVs” value [2] was “did not collapse the Δψ” and the IC50 [2] was > 100000 nM.

In the case of `N#CC(C#N)=NNc1ccccc1Br` [Compound 1, [(2-bromophenyl)hydrazono]malononitrile], the “outcome of NADH-dependent in vitro Tat transport screen (survival = visible inhibition of Tat transport)” value [1] is reported as “survived” and the IC50 [2] is reported as 1000 nM.

In the case of `O=C(Nc1cccc(C(F)(F)F)c1)Nc1ncc([N+](=O)[O-])s1` [Compound 181^JS, 1-(5-nitro-1,3-thiazol-2-yl)-3-[3-(trifluoromethyl)phenyl]urea], the “outcome of NADH-dependent in vitro Tat transport screen (survival = visible inhibition of Tat transport)” value [1] is reported as “survived” and the IC50 [2] is reported as 400 nM.

For `O=C1C=CC(=O)N1c1ccccc1` [N-phenylmaleimide], the “effect on in vitro E. coli Tat transport” value [1] was “neither compound affected; also recorded: do not inhibit”.

In the case of `Cc1ccc(S(=O)(=O)/C=C/C#N)cc1` [Bay 11–7082], the “effect on in vitro E. coli Tat transport” value [1] is reported as “neither compound affected; also recorded: do not inhibit”.

In the case of `Fc1nc(F)c(F)c(NNC(=S)Nc2cccc(C(F)(F)F)c2)c1F` [Compound 111, 1-[(2,3,5,6-tetrafluoropyridin-4-yl)amino]-3-[(3-trifluoromethyl)phenyl]thiourea], the IC50 [1] is reported as 700 nM, the “outcome of NADH-dependent in vitro Tat transport screen (survival = visible inhibition of Tat transport)” value [1] is reported as “survived” and the IC50 [2] is reported as 100 nM.

For `FC(F)(F)c1cccc(-c2cccc3cnccc23)c1` [Compound 140, 5-[3-(trifluoromethyl)phenyl]isoquinoline], the “outcome of NADH-dependent in vitro Tat transport screen (survival = visible inhibition of Tat transport)” value [1] was “survived” and the IC50 [2] was 1000 nM.
